Laboratory results reported in PubChem BioAssay (NCI).
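Results reflect a 48-hour exposure of cells in 96-well plates to compound at five concentrations. Here, GI50 denotes the concentration required for 50% inhibition of growth. TGI is the concentration that stops growth completely.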

What was measured:
Assay in all cases: inhibition of tumour cell growth, NCI panel, 48 h
LOX IMVI melanoma = tested on: LOX IMVI melanoma
HCT-116 colon = tested on: HCT-116 colon
DU-145 prostate = tested on: DU-145 prostate
NCI-H522 lung = tested on: NCI-H522 lung
SN12C renal = tested on: SN12C renal
RPMI-8226 leukemia = tested on: RPMI-8226 leukemia
SK-MEL-2 melanoma = tested on: SK-MEL-2 melanoma
MCF7 breast = tested on: MCF7 breast
UACC-257 melanoma = tested on: UACC-257 melanoma
SF-295 CNS = tested on: SF-295 CNS
UACC-62 melanoma = tested on: UACC-62 melanoma
OVCAR-5 ovarian = tested on: OVCAR-5 ovarian
MALME-3M melanoma = tested on: MALME-3M melanoma
SF-539 CNS = tested on: SF-539 CNS
SNB-75 CNS = tested on: SNB-75 CNS
OVCAR-8 ovarian = tested on: OVCAR-8 ovarian
SW-620 colon = tested on: SW-620 colon
SK-OV-3 ovarian = tested on: SK-OV-3 ovarian
UO-31 renal = tested on: UO-31 renal
CAKI-1 renal = tested on: CAKI-1 renal
MDA-MB-231 breast = tested on: MDA-MB-231 breast
HT29 colon = tested on: HT29 colon
HOP-92 NSCLC = tested on: HOP-92 NSCLC
SK-MEL-28 melanoma = tested on: SK-MEL-28 melanoma
K-562 leukemia = tested on: K-562 leukemia
A498 renal = tested on: A498 renal
A549 NSCLC = tested on: A549 NSCLC
NCI-H226 lung = tested on: NCI-H226 lung
TK-10 renal = tested on: TK-10 renal
786-0 renal = tested on: 786-0 renal
SNB-19 CNS = tested on: SNB-19 CNS
NCI-H460 lung = tested on: NCI-H460 lung
MOLT-4 leukemia = tested on: MOLT-4 leukemia
EKVX NSCLC = tested on: EKVX NSCLC
M14 melanoma = tested on: M14 melanoma
NCI/ADR-RES ovarian = tested on: NCI/ADR-RES ovarian
SK-MEL-5 melanoma = tested on: SK-MEL-5 melanoma
HS 578T breast = tested on: HS 578T breast
IGROV1 ovarian = tested on: IGROV1 ovarian
KM12 colon = tested on: KM12 colon
COLO 205 colon = tested on: COLO 205 colon
OVCAR-4 ovarian = tested on: OVCAR-4 ovarian
PC-3 prostate = tested on: PC-3 prostate
NCI-H23 lung = tested on: NCI-H23 lung
RXF 393 renal = tested on: RXF 393 renal
ACHN renal = tested on: ACHN renal
CCRF-CEM leukemia = tested on: CCRF-CEM leukemia
HCC-2998 colon = tested on: HCC-2998 colon
BT-549 breast = tested on: BT-549 breast
SF-268 CNS = tested on: SF-268 CNS
T-47D breast = tested on: T-47D breast
OVCAR-3 ovarian = tested on: OVCAR-3 ovarian
HL-60(TB) leukemia = tested on: HL-60(TB) leukemia
MDA-MB-435 = tested on: MDA-MB-435
HOP-62 NSCLC = tested on: HOP-62 NSCLC
HCT-15 colon = tested on: HCT-15 colon
U251 CNS = tested on: U251 CNS
SR leukemia = tested on: SR leukemia

For `COc1cc(C2c3cc4c(cc3OC(NNC(N)=O)C2C)OCO4)cc(OC)c1OC` (centres undefined), the TGI (LOX IMVI melanoma) was over 100 µM, the TGI (HCT-116 colon) was over 36.5 µM and the TGI (DU-145 prostate) was over 100 µM. For the same compound, the TGI (NCI-H522 lung) was 0.344 µM, the TGI (SN12C renal) was over 100 µM and the TGI (RPMI-8226 leukemia) was over 58.1 µM. The TGI (SK-MEL-2 melanoma) was over 100 µM, the TGI (MCF7 breast) was over 53.8 µM and the TGI (UACC-257 melanoma) was over 100 µM. It also gave a TGI (SF-295 CNS) of 0.425 µM, a TGI (UACC-62 melanoma) of over 100 µM and a TGI (OVCAR-5 ovarian) of over 100 µM. For the same compound, the TGI (MALME-3M melanoma) was over 100 µM, the TGI (SF-539 CNS) was 0.165 µM and the TGI (SNB-75 CNS) was over 87.9 µM. For the same compound, the TGI (OVCAR-8 ovarian) was over 100 µM, the TGI (SW-620 colon) was over 100 µM and the TGI (SK-OV-3 ovarian) was over 100 µM. For the same compound, the TGI (UO-31 renal) was over 72.6 µM, the TGI (CAKI-1 renal) was over 100 µM and the TGI (MDA-MB-231 breast) was 7.25 µM. It also gave a TGI (HT29 colon) of over 100 µM, a TGI (HOP-92 NSCLC) of 8.18 µM and a TGI (SK-MEL-28 melanoma) of over 100 µM. For the same compound, the TGI (K-562 leukemia) was 2.82 µM, the TGI (A498 renal) was 0.0599 µM and the TGI (A549 NSCLC) was over 100 µM. The TGI (NCI-H226 lung) was 3.7 µM, the TGI (TK-10 renal) was over 100 µM and the TGI (786-0 renal) was over 100 µM. The TGI (SNB-19 CNS) was over 100 µM, the TGI (NCI-H460 lung) was over 89.8 µM and the TGI (MOLT-4 leukemia) was over 100 µM. It also gave a TGI (EKVX NSCLC) of 99.7 µM, a TGI (M14 melanoma) of over 44.9 µM and a TGI (NCI/ADR-RES ovarian) of over 100 µM. It also gave a TGI (SK-MEL-5 melanoma) of 22.8 µM, a TGI (HS 578T breast) of over 64.9 µM and a TGI (IGROV1 ovarian) of over 100 µM. The TGI (KM12 colon) was over 100 µM, the TGI (COLO 205 colon) was 0.613 µM and the TGI (OVCAR-4 ovarian) was over 100 µM. For the same compound, the TGI (PC-3 prostate) was over 100 µM, the TGI (NCI-H23 lung) was over 100 µM and the TGI (RXF 393 renal) was over 100 µM. For the same compound, the TGI (ACHN renal) was over 62.2 µM, the TGI (CCRF-CEM leukemia) was 0.507 µM and the TGI (HCC-2998 colon) was over 27.2 µM. It also gave a TGI (BT-549 breast) of over 100 µM, a TGI (SF-268 CNS) of over 100 µM and a TGI (T-47D breast) of over 100 µM.

`O=C1Nc2ccccc2/C1=C\c1c(-c2ccccc2)nc2sccn12` showed a GI50 (LOX IMVI melanoma) of 2.09 µM, a TGI (LOX IMVI melanoma) of 13.8 µM and a GI50 (HCT-116 colon) of 1.7 µM. The TGI (HCT-116 colon) was 8.96 µM, the GI50 (OVCAR-3 ovarian) was 0.506 µM and the TGI (OVCAR-3 ovarian) was 1.93 µM. It also gave a GI50 (DU-145 prostate) of 7.31 µM, a TGI (DU-145 prostate) of 31.1 µM and a GI50 (NCI-H522 lung) of 1.44 µM. For the same compound, the TGI (NCI-H522 lung) was 14.6 µM, the GI50 (SN12C renal) was 2.75 µM and the TGI (SN12C renal) was 14.4 µM. It also gave a GI50 (RPMI-8226 leukemia) of 0.909 µM, a TGI (RPMI-8226 leukemia) of 3.74 µM and a GI50 (SK-MEL-2 melanoma) of 5.87 µM. For the same compound, the TGI (SK-MEL-2 melanoma) was 22.6 µM, the GI50 (MCF7 breast) was 2.95 µM and the TGI (MCF7 breast) was 22.7 µM. For the same compound, the GI50 (UACC-257 melanoma) was 14.9 µM, the TGI (UACC-257 melanoma) was 41 µM and the GI50 (SF-295 CNS) was 0.797 µM. It also gave a TGI (SF-295 CNS) of 3.24 µM, a GI50 (UACC-62 melanoma) of 0.798 µM and a TGI (UACC-62 melanoma) of 9.72 µM. The GI50 (OVCAR-5 ovarian) was 2.7 µM, the TGI (OVCAR-5 ovarian) was 11.9 µM and the GI50 (MALME-3M melanoma) was 1.92 µM. The TGI (MALME-3M melanoma) was 21.7 µM, the TGI (SF-539 CNS) was over 34.4 µM and the GI50 (SNB-75 CNS) was 6.74 µM. It also gave a TGI (SNB-75 CNS) of 28.4 µM, a GI50 (HL-60(TB) leukemia) of 0.999 µM and a TGI (HL-60(TB) leukemia) of 7.33 µM. The GI50 (OVCAR-8 ovarian) was 4.58 µM, the TGI (OVCAR-8 ovarian) was over 100 µM and the GI50 (SW-620 colon) was 2.16 µM. The TGI (SW-620 colon) was 27.1 µM, the GI50 (SK-OV-3 ovarian) was 2.91 µM and the TGI (SK-OV-3 ovarian) was 12.7 µM. It also gave a GI50 (UO-31 renal) of 2.55 µM, a TGI (UO-31 renal) of 13.3 µM and a GI50 (MDA-MB-435) of 0.354 µM. It also gave a TGI (MDA-MB-435) of 0.943 µM, a GI50 (CAKI-1 renal) of 1.29 µM and a TGI (CAKI-1 renal) of 4.74 µM. The GI50 (MDA-MB-231 breast) was 1.39 µM, the TGI (MDA-MB-231 breast) was 6.18 µM and the GI50 (HT29 colon) was 3.14 µM. It also gave a TGI (HT29 colon) of 36.9 µM, a GI50 (HOP-92 NSCLC) of 2.14 µM and a TGI (HOP-92 NSCLC) of 7.87 µM. For the same compound, the GI50 (SK-MEL-28 melanoma) was 8.98 µM, the TGI (SK-MEL-28 melanoma) was 44.9 µM and the GI50 (K-562 leukemia) was 0.624 µM. It also gave a TGI (K-562 leukemia) of over 45.8 µM, a GI50 (A498 renal) of 0.927 µM and a TGI (A498 renal) of 5.33 µM. The GI50 (A549 NSCLC) was 3.5 µM, the TGI (A549 NSCLC) was over 100 µM and the GI50 (NCI-H226 lung) was 4.27 µM. It also gave a TGI (NCI-H226 lung) of 23 µM, a GI50 (TK-10 renal) of 4.61 µM and a TGI (TK-10 renal) of 17.2 µM. It also gave a GI50 (786-0 renal) of 2.39 µM, a TGI (786-0 renal) of 9.23 µM and a GI50 (SNB-19 CNS) of 3.53 µM. For the same compound, the TGI (SNB-19 CNS) was over 43.7 µM, the GI50 (NCI-H460 lung) was 3.15 µM and the TGI (NCI-H460 lung) was 43.9 µM. For the same compound, the GI50 (MOLT-4 leukemia) was 1.1 µM, the TGI (MOLT-4 leukemia) was over 37.5 µM and the GI50 (EKVX NSCLC) was 7.84 µM. The TGI (EKVX NSCLC) was 32.6 µM, the GI50 (M14 melanoma) was 1.98 µM and the TGI (M14 melanoma) was 7.61 µM. For the same compound, the GI50 (NCI/ADR-RES ovarian) was 1.17 µM, the TGI (NCI/ADR-RES ovarian) was 5.13 µM and the GI50 (SK-MEL-5 melanoma) was 2.2 µM. It also gave a TGI (SK-MEL-5 melanoma) of 7.89 µM, a GI50 (HOP-62 NSCLC) of 2.32 µM and a TGI (HOP-62 NSCLC) of 9.44 µM. It also gave a GI50 (HS 578T breast) of 5.58 µM, a TGI (HS 578T breast) of 18.7 µM and a GI50 (IGROV1 ovarian) of 1.98 µM. The TGI (IGROV1 ovarian) was over 54.2 µM, the GI50 (KM12 colon) was 0.833 µM and the TGI (KM12 colon) was 20.1 µM. The GI50 (COLO 205 colon) was 2.23 µM, the TGI (COLO 205 colon) was 16.4 µM and the GI50 (OVCAR-4 ovarian) was 12.6 µM. For the same compound, the TGI (OVCAR-4 ovarian) was 62.8 µM, the GI50 (HCT-15 colon) was 1.08 µM and the TGI (HCT-15 colon) was 8.39 µM. It also gave a GI50 (PC-3 prostate) of 1.95 µM, a TGI (PC-3 prostate) of 17.4 µM and a GI50 (NCI-H23 lung) of 1.63 µM. For the same compound, the TGI (NCI-H23 lung) was 4.18 µM, the GI50 (RXF 393 renal) was 3.35 µM and the TGI (RXF 393 renal) was 26.6 µM. For the same compound, the GI50 (U251 CNS) was 2.25 µM, the TGI (U251 CNS) was 7.96 µM and the GI50 (SR leukemia) was 0.309 µM. For the same compound, the TGI (SR leukemia) was 0.976 µM, the GI50 (ACHN renal) was 2.13 µM and the TGI (ACHN renal) was 14.5 µM. It also gave a GI50 (CCRF-CEM leukemia) of 0.689 µM, a TGI (CCRF-CEM leukemia) of 19.8 µM and a GI50 (BT-549 breast) of 3.3 µM. For the same compound, the TGI (BT-549 breast) was 16.9 µM, the GI50 (SF-268 CNS) was 5.86 µM and the TGI (SF-268 CNS) was 57.1 µM. It also gave a GI50 (T-47D breast) of 2.65 µM and a TGI (T-47D breast) of over 33 µM.
